Entries after “also recorded” stand apart in the source; their conditions may differ. Read-outs that look alike come from different tables or passages of the source. Bridge positions count the residues as written; N and C are the ends. Square brackets hold non-standard residues; d marks the D form. Peptide text beside a SMILES is read from it. pGlu = O=C1CC[C@@H](C(=O)O)N1
Experiments:
zebrafish αβδ nAChR [1] = format: cell-based, zebrafish (Danio rerio)
zebrafish αβδ nAChR [2] = format: cell-based, zebrafish (Danio rerio); remark: listed apart in the source

Question: CC[C@H](C)[C@@H]1NC(=O)[C@H](CC(C)C)NC(=O)[C@H](CCCNC(=N)N)NC(=O)[C@H](CC(=O)O)NC(=O)[C@H](CCCNC(=N)N)NC(=O)[C@H](Cc2ccccc2)NC(=O)[C@H](Cc2ccc(O)cc2)NC(=O)[C@H](CC(C)C)NC(=O)[C@@H]2CCCN2C(=O)[C@@H]2CSSC[C@@H](C(=O)O)NC(=O)[C@@H]3CSSC[C@H](NC(=O)[C@H](CCCCN)NC(=O)[C@@H]4CCC(=O)N4)C(=O)N[C@@H](CSSC[C@H](NC1=O)C(=O)N1CCC[C@H]1C(=O)N3)C(=O)N[C@@H](CO)C(=O)NCC(=O)NCC(=O)N[C@@H](CO)C(=O)N2 [αM-MIIIJ] ([pGlu]KCCSGGSCPLYFRDRLICPCC-OH; disulfide 3-21, 4-19, 9-22) was tested. Which “protection against α-BgTX block” value (zebrafish αβδ nAChR [1]) did it give?
Answer: largely protected

Question: What about the “protection against α-EI block” value (zebrafish αβδ nAChR [1]) of the same compound?
Answer: rapidly reversed upon toxin washout; also recorded: completely protected

Question: And the “affinity of αβδ relative to αβδε and αβδγ” value (zebrafish αβδ nAChR [2])?
Answer: about a factor of two higher

Question: And the koff (zebrafish αβδ nAChR [2])?
Answer: 0.0417 s⁻¹

Question: And the “recovery of IACh on washout” value (zebrafish αβδ nAChR [2])?
Answer: recovered almost completely within a minute

Question: And the reversibility of block (zebrafish αβδ nAChR [2])?
Answer: readily reversible

Question: What about the IC50 (zebrafish αβδ nAChR [2]; read-out: IC50) of the same compound?
Answer: 33 nM

Question: And the IC50 (zebrafish αβδ nAChR [2]; read-out: IC50 (range statement))?
Answer: ~50 nM

From publication PMC7150935 (Toxins, 2020)
